From ChEMBL document CHEMBL1201862, “PubChem BioAssay data set” (2004)
“And” between values parts separate entries of the source, which are not always exact repeats. Equal entries are not always repeated. Blank lines part the entries; values can stand above or below the compound they belong to. The source made the active and inactive calls.

Experiments:
Cytochrome P450 2D6 = Cytochrome P450 2D6 (Homo sapiens, UniProt P10635);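 also: CYP2D6 member of a cytochrome P450 panel assay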
[1] = Trypanosoma cruzi growth suppression in host cells – NIH3T3 host cells, beta-gal luminescence, confirmation (AID 2044); format: functional, cell-based;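 also: intracellular parasites grown in NIH/3T3 mouse fibroblasts as host cells; luminescent beta-galactosidase reporter signal from transgenic T. cruzi replicating inside host cells; inhibitors lower the luminescence signal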
[2] = NIH3T3 cell viability loss – ATP luminescence, mouse fibroblasts, counter-screen, dose response (AID 2010); format: functional, cell-based;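 also: cells exposed to compound for about 90 hours before reading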
[3] = target: T1, Heat shock factor protein 1 (Mus musculus, UniProt P38532); assay: decrease of HSF1-responsive luciferase luminescence – cell-based, NIH3T3, dose retest, confirmation (AID 2382); format: functional;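 also: NIH3T3 fibroblasts with HSF1-driven luciferase reporter stressed by proteasome inhibitor MG132; luminescence from HSF1-driven luciferase expression after 8 hours of MG132 stress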
T1 sequence (P38532 whole entry): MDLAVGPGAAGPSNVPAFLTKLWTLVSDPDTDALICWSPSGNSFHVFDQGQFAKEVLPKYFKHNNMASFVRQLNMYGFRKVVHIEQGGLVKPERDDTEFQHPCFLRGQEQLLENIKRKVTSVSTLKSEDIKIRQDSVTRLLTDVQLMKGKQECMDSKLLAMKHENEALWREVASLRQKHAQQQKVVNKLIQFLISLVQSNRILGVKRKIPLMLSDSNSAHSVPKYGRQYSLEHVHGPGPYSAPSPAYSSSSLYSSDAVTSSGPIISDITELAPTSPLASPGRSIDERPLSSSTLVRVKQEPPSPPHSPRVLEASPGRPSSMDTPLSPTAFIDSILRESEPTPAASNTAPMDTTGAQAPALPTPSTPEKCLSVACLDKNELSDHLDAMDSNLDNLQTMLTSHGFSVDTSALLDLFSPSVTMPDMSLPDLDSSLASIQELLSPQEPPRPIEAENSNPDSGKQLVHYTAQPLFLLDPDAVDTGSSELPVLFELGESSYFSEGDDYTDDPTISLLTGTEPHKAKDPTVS

Cytochrome P450 2C19 = Cytochrome P450 2C19 (Homo sapiens, UniProt P33261); assay: Cytochrome panel assay with activity outcomes. Panel member name: p450-cyp2c19 Compounds with AC50 equal or less than 10 uM are considered active; format: functional; details: read-out: AC50
Sequence of Cytochrome P450 2C19 (P33261 whole entry): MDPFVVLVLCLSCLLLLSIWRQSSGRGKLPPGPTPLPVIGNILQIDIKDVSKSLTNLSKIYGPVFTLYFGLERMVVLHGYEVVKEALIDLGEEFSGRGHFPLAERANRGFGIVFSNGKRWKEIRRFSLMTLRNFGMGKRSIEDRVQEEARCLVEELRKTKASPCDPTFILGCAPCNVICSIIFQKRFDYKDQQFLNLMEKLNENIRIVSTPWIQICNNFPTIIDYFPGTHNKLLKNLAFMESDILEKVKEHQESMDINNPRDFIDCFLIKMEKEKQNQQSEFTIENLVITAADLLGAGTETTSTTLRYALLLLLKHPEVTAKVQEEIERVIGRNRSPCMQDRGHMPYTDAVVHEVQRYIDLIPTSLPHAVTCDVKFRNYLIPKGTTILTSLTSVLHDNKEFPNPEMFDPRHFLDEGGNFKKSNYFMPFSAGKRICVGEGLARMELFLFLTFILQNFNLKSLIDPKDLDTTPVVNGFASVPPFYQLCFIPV

Cytochrome P450 2C9 = Cytochrome P450 2C9 (Homo sapiens, UniProt P11712)
Sequence of Cytochrome P450 2C9 (P11712 whole entry): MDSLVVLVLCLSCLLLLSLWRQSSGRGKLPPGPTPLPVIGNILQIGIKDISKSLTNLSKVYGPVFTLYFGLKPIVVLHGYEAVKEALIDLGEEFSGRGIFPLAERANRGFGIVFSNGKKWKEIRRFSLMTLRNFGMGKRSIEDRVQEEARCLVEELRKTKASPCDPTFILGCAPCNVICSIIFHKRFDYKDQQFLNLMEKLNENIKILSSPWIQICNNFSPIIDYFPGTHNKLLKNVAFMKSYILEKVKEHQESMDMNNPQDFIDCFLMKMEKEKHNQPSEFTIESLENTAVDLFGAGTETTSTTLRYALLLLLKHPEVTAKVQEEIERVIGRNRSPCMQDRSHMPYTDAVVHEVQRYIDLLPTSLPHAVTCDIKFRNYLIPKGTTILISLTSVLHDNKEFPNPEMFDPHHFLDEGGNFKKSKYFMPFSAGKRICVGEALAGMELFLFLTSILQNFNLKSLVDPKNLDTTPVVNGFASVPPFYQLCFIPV

[4] = system: Streptococcus sp. 'group A'; assay: Streptococcus pyogenes SK(-)GAS viability under kanamycin – luminescence, BacTiterGlo, confirmation, counter-screen for streptokinase expression inhibitor project, dose response (AID 1900); format: functional, organism-based
Streptococcus = assay: GAS UMAA2166 growth inhibition – luminescence, BacTiterGlo, counter-screen for streptokinase expression inhibitor project, dose response (AID 1915); format: functional, organism-based;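 also: potency for reduction of bacterial viability or growth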

Sequence of Cytochrome P450 2D6 (P10635 whole entry): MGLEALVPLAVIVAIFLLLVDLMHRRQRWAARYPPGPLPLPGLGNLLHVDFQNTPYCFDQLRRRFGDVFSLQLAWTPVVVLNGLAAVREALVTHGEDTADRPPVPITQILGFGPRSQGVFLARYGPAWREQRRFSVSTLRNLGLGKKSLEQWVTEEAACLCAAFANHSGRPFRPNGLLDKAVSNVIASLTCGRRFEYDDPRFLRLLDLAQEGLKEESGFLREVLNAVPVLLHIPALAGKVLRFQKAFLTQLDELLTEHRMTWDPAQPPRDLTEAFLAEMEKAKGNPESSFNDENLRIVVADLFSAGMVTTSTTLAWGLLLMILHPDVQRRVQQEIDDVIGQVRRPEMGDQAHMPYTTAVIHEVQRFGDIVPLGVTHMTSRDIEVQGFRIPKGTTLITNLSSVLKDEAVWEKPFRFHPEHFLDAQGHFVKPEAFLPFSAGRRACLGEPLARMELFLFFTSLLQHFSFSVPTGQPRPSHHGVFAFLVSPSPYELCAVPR

Compound: Cc1cccc(C)c1OC[C@H](C)N [(S)-MEXILETINE]
- AC50 (Cytochrome P450 2D6): 7.94 µM (inconclusive) and 39.8 µM (inconclusive)

Compound: COc1ccc(CCNC(=O)c2cc3c(=O)n4ccccc4nc3n(C3CCCCC3)c2=N)cc1
- EC50 [1]: 2.17 µM (active)
- EC50 [2]: > 60 µM (not active)

Compound: O=C(Cn1cnc2cc([N+](=O)[O-])ccc2c1=O)NC(=O)NCc1ccccc1
- EC50 [1]: 0.223 µM (active)
- EC50 [2]: > 60 µM (not active)

- EC50 [3]: > 195 µM (not active)
Compound: Cc1nn2c(=O)c(Cl)c(C)[nH]c2c1-c1ccccc1

- EC50 [3]: > 195 µM (not active)
Compound: C=CCN1C(=O)C(Cc2ccc(OC)cc2)S/C1=N/N=C/c1ccco1 (centres undefined)

- AC50 (Cytochrome P450 2C19): 25.1 µM (inconclusive)
- AC50 (Cytochrome P450 2D6): 31.6 µM (inconclusive)
Compound: CN(C)c1cc2c(Nc3ccc4c(cnn4Cc4ccccc4)c3)ncnc2cn1 [GW282974X]

- AC50 (Cytochrome P450 2C9): 20 µM (inconclusive)
Compound: Cc1cc(C(F)(F)F)n2nc(-c3cnn(C)c3C(F)(F)F)c(Cl)c2n1

Compound: Cc1c2c(n3c(nc4ccccc43)c1C#N)N(CCN(C)C)CC2
- EC50 [1]: 0.117 µM (active)
- EC50 [2]: 20.6 µM (active)

- AC50 (Cytochrome P450 2C9): 0.0158 µM (inconclusive)
Compound: COc1ccccc1CNc1ccnc(-c2ccccc2C(F)(F)F)n1

- AC50 (Cytochrome P450 2D6): 31.6 µM (inconclusive)
Compound: COc1cccc(-c2ccc3ncnc(NCc4cnc(C)cn4)c3c2)c1

- AC50 (Cytochrome P450 2D6): 0.891 µM (inconclusive)
Compound: Cc1nn(-c2ccccc2)c2c1C(=O)N(Cc1ccccc1)C(=O)C(C)(C)C2

Compound: C[N+]12CCC(CC1)[C@@H](OC(=O)C(O)(c1ccccc1)c1ccccc1)C2
- AC50 (Cytochrome P450 2D6): 12.6 µM (inconclusive)

Compound: O=c1c2ccccc2ncn1-c1ccc([N+](=O)[O-])cc1[N+](=O)[O-]
- EC50 [1]: 0.524 µM (active)
- EC50 [2]: > 60 µM (not active)

- EC50 [3]: > 195 µM (not active)
Compound: Cc1ccccc1OCC(=O)OCC(=O)c1ccc(-c2ccccc2)cc1

- EC50 [3]: > 195 µM (not active)
Compound: CC(C)(C)OC(=O)N[C@@H](Cc1ccccc1)C(=O)NC[C@H]1CC[C@H](C(=O)N[C@@H](CC(=O)O)C(=O)O)CC1

- AC50 (Cytochrome P450 2C9): 22.4 µM (inconclusive)
Compound: Cc1ccnc(NCn2nnc3ccccc32)c1

- AC50 (Cytochrome P450 2C9): 3.16 µM (inconclusive)
Compound: Cc1ccc(C)c(NC(=O)C2C3CCCC2C3c2ccccc2)c1 (centres undefined)

- AC50 (Cytochrome P450 2C9): 0.126 µM (inconclusive)
Compound: COC(=O)c1cc(NC(=O)/C=C/c2ccc3c(c2)OCO3)cc(C(=O)OC)c1

Compound: CCOC(=O)c1cc2c(=O)n3ccccc3nc2n(C(C)C)/c1=N/C(=O)c1c(-c2ccccc2Cl)noc1C
- EC50 [1]: 2.4 µM (active)
- EC50 [2]: > 30 µM (not active)

- EC50 [3]: > 195 µM (not active)
Compound: CC1(C)Cc2nc3[nH]c(=S)n(-c4ccccc4)c(=O)c3cc2CO1

- AC50 (Cytochrome P450 2C9): 25.1 µM (inconclusive)
Compound: CC(=O)N1CCC2(CC1)CCN(c1ccc(-c3ccccc3)cc1)CC2

- EC50 [3]: > 195 µM (not active)
Compound: Cc1ccc(OCC(O)CN2C(=O)NC(C)(C)C2=O)cc1C (centres undefined)

- AC50 (Cytochrome P450 2C19): 39.8 µM (inconclusive)
Compound: CCOC(=O)N1CCC(NC(=O)CS(=O)(=O)Cc2nc(-c3cccc(OC)c3)oc2C)CC1

- AC50 (Cytochrome P450 2C9): 0.112 µM (inconclusive)
Compound: CCCNC(=O)c1c(C)cc(=O)oc1C

- AC50 (Cytochrome P450 2C19): 1.78 µM (inconclusive)
- AC50 (Cytochrome P450 2C9): 14.1 µM (inconclusive)
Compound: Cc1c(Cl)c([N+](=O)[O-])nn1CC(=O)Nc1c(C)n(C)n(-c2ccccc2)c1=O

Compound: CCOc1ccc(-c2cc(C(=O)OC)nc3c2c(=O)n(C)c(=O)n3C)cc1
- EC50 [4]: 0.063 µM (active)
- EC50 (Streptococcus): 4.33 µM (active)

- AC50 (Cytochrome P450 2D6): 15.8 µM (inconclusive)
Compound: Cc1cc(N2CCOCC2)nc(SCc2ccc(Cl)cc2Cl)n1

- AC50 (Cytochrome P450 2C9): 20 µM (inconclusive)
Compound: Cc1cc(C)cc(NC(=O)N2CCCC2C(=O)Nc2ccc(-n3cnnn3)c(C)c2)c1 (centres undefined)

- AC50 (Cytochrome P450 2D6): 28.2 µM (inconclusive)
Compound: CCC(C(=O)NC(C)(C)C)N(C(=O)Cn1nnc(-c2cccs2)n1)c1cnc2ccccc2c1 (centres undefined)

- EC50 [3]: > 195 µM (not active)
Compound: O=C(CS(=O)(=O)Cc1ccccc1)NCC1CCCO1 (centres undefined)

- EC50 [3]: > 195 µM (not active)
Compound: Cc1ccc(/C=C/C(=O)Nc2ccc(O)c3c(=O)cc(-c4ccccc4Cl)oc23)cc1
